Source: patent publication US20050132448A1, “Assay for beta cell toxic macrolides” (priority 2001, published 2005)

Test system: C57B1/6J mice
Test: Size and number of pancreatic islets after vATPase inhibitors
Format: in vivo
Settings: for No. islets per mm^2 pancreas section / Median size: day 84, 5 daily doses of 12 ng/g body weight; for effect on islet number and size: i.p. 12 ng/gram body weight; for Median size: insulin-positive islets
Protocol: The effect of vATPase inhibitors on the size and number of pancreatic islets was analysed in C57B1/6J using either bafilomycin A1 (BA1) or concanamycin A (CMA). The effect of Streptozotocin, an islet beta-cell specific toxin produced by Streptomyces achromogenes was also examined, to enable comparison with the effect of vATPase inhibitors.
Groups of 4 female C57B1/6J mice were injected with 5 doses on 5 consecutive days of 12 ng/g body weight BA1, CMA or the well characterised islet β-cell toxin streptozotocin. Pancreases were removed on day 84 and 3 formalin-fixed sections per mouse were immunostained for insulin. The area of insulin-positive islets was measured on digital images using MCID software.

| Compound | No. islets per mm^2 pancreas section | effect on islet number and size | Median size |
| --- | --- | --- | --- |
| CN(N=O)C(=O)N[C@H]1C(O)O[C@H](CO)[C@@H](O)[C@@H]1O (mixture of isomers) [Streptozotocin] | 0.46 per mm^2 pancreas section | reduces the number of islets but does not induce the formation of new islets | 5890 μm^2 |
| C/C=C/[C@H]1O[C@@](O)([C@@H](C)[C@H](O)[C@H](C)[C@H]2OC(=O)/C(OC)=C/C(C)=C/[C@@H](C)[C@@H](O)[C@@H](CC)[C@@H](O)[C@H](C)C/C(C)=C/C=C/[C@@H]2OC)C[C@@H](O[C@H]2C[C@@H](O)[C@H](OC(N)=O)[C@@H](C)O2)[C@@H]1C [CMA, concanamycin A] | 0.78 per mm^2 pancreas section | increased the number of small islets | 3170 μm^2 |
